The values that follow come from ChEMBL document CHEMBL6083234, “Discovery of novel 1,4-dicarbonylthiosemicarbazides as DNA gyrase inhibitors for the treatment of MRSA infection” (Eur J Med Chem, 2024).

Series [1] concerns Staphylococcus aureus. The series can be described thus: Antibacterial activity against methicillin-resistant Staphylococcus aureus clinical isolate 16-1 infected in kunming mouse model assessed as survival rate at 3.5 mg/kg, iv pre-infected with bacteria for 10 mins followed by compound administration and measured for 7 days (reference value: 0 %). The format is functional. The following applies: 168 h, time 7 day.

Series [2] concerns Staphylococcus aureus. The series can be described thus: Antibacterial activity against Staphylococcus aureus ATCC 29213 assessed as inhibition of bacterial growth incubated for 18 to 24 hrs by broth microdilution method. Format: functional. The conditions noted are these: time 18-24 hrs.
Series [3] concerns Staphylococcus aureus. The series can be described thus: Antibacterial activity against methicillin-resistant Staphylococcus aureus clinical isolate 16-1 infected in kunming mouse model assessed as survival rate at 5 mg/kg, iv pre-infected with bacteria for 10 mins followed by compound administration and measured for 7 days (reference value: 0 %). Format: functional. The following applies: 168 h, time 7 day.

Series [4] deals with Staphylococcus aureus. The series can be described thus: Antibacterial activity against methicillin-resistant Staphylococcus aureus clinical isolate 16-1 infected in kunming mouse model assessed as survival rate at 7 mg/kg, iv pre-infected with bacteria for 10 mins followed by compound administration and measured for 7 days (reference value: 0 %). The format is functional. The following applies: 168 h, time 7 day.

Series [5] deals with Staphylococcus aureus. The series can be described thus: Antibacterial activity against methicillin-resistant Staphylococcus aureus (15 strains) assessed as inhibition of bacterial growth incubated for 18 to 24 hrs by broth microdilution method. Format: functional. The following applies: time 18-24 hrs. Background: In broth dilution the organism is exposed to a series of concentrations in liquid medium.

The subject of series [6] is Staphylococcus aureus. The series can be described thus: Antibacterial activity against methicillin-resistant Staphylococcus aureus clinical isolate 16-1 infected in kunming mouse model assessed as survival rate at 10 mg/kg, iv pre-infected with bacteria for 10 mins followed by compound administration and measured for 7 days (reference value: 0 %). The following applies: 168 h, time 7 day. Format: functional.

The test system of series [7] is Staphylococcus aureus. The series can be described thus: Bacteriostatic activity against Staphylococcus aureus ATCC 29213 assessed as inhibition of bacterial growth at 4 times of MIC measured after 24 hrs by time-kill assay. The format is functional, organism-based.
Series [8] relates to Staphylococcus epidermidis. The series can be described thus: Antibacterial activity against methicillin-sensitive Staphylococcus epidermidis (8 strains) assessed as inhibition of bacterial growth incubated for 18 to 24 hrs by broth microdilution method. Format: functional. The conditions noted are these: time 18-24 hrs.
For series [9], the system named is Enterococcus faecium. The series can be described thus: Antibacterial activity against Enterococcus faecium (8 strains) assessed as inhibition of bacterial growth incubated for 18 to 24 hrs by broth microdilution method. The conditions noted are these: time 18-24 hrs. Format: functional.
Series [10] in a line: Stability in mouse plasma assessed as half-life at 1 uM measured upto 120 mins by LC-MS/MS analysis. The format is ADME, cell-free.
Series [11] deals with T1, DNA gyrase (Staphylococcus aureus, UniProt P0A0K8+P20831). The series can be described thus: Inhibition of Staphylococcus aureus DNA gyrase ATP hydrolysis activity using pBR322 DNA as substrate incubated for 30 mins in presence of ATP by ADP-Glo reagent based assay. Format: protein-complex assay. (ADP-Glo first removes unused ATP, then detects ADP through luciferase.)
T1 sequence (P0A0K8 whole entry): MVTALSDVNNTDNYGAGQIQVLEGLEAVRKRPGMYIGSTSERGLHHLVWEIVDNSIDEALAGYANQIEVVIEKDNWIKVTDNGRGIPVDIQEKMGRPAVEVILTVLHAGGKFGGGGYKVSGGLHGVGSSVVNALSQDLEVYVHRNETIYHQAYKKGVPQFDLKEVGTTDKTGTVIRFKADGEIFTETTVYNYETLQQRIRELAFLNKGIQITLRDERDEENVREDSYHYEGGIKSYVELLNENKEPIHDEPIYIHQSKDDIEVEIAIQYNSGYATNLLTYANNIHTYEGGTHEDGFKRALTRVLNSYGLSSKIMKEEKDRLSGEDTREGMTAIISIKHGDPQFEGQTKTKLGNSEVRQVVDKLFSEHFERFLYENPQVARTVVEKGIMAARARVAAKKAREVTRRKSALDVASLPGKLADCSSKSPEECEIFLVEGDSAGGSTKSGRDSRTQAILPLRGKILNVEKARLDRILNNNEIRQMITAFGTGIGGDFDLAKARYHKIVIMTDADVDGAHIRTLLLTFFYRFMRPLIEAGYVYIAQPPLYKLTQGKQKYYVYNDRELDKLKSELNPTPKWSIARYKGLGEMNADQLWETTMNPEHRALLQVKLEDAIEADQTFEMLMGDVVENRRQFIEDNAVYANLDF
T1 sequence (P20831 whole entry): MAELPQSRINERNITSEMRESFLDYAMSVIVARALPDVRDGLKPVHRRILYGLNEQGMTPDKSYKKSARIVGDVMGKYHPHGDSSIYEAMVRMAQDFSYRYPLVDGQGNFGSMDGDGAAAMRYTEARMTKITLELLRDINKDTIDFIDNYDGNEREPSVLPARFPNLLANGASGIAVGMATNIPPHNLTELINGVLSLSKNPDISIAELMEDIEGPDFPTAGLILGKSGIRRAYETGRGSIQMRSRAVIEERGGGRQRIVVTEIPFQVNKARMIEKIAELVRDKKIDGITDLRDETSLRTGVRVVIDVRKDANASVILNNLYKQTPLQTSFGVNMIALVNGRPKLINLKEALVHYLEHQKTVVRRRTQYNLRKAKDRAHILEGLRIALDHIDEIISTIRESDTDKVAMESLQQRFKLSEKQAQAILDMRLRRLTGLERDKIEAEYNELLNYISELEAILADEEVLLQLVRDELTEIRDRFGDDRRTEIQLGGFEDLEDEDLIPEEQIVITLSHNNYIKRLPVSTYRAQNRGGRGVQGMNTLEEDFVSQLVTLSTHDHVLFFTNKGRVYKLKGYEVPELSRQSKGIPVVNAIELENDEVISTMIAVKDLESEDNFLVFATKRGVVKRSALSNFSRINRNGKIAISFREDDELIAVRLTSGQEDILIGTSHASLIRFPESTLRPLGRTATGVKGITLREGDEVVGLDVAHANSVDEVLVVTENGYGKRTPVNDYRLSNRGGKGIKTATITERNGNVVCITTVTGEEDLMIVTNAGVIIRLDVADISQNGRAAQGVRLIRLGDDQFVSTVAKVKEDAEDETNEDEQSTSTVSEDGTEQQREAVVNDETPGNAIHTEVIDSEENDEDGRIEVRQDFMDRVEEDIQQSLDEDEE

Series [12] is described as follows: Selectivity index, ratio of CC50 for cytotoxicity against HUVEC cells to MIC for antibacterial activity against Staphylococcus aureus ATCC 29213. Format: toxicity, cell-based. The conditions noted are these: human, read-out: Selectivity Index.
Series [13] relates to Staphylococcus aureus. The series can be described thus: Antibacterial activity against methicillin-resistant Staphylococcus aureus clinical isolate 16-1 infected in kunming mouse model assessed as survival rate at 14 mg/kg, iv pre-infected with bacteria for 10 mins followed by compound administration and measured for 7 days (reference value: 0 %). The format is functional. The conditions noted are these: 168 h, time 7 day.

Series [14] can be described thus: Selectivity index, ratio of CC50 for cytotoxicity against human HepG2 cells to MIC for antibacterial activity against Staphylococcus aureus ATCC 29213. The format is toxicity, cell-based. The conditions noted are these: read-out: Selectivity Index.
Series [15] in a line: Cytotoxicity against human HepG2 cells assessed as reduction in cell viability incubated for 48 hrs by CCK8 assay. The format is toxicity, cell-based. (In general: Tetrazolium assays rely on reduction of a dye to a coloured formazan, in cell work by metabolically active cells.)
Series [16] has as its system Staphylococcus aureus. The series can be described thus: Antibacterial activity against methicillin-resistant Staphylococcus aureus clinical isolate 16-1 infected in kunming mouse model assessed as survival rate at 20 mg/kg, iv pre-infected with bacteria for 10 mins followed by compound administration and measured for 7 days (reference value: 0 %). The conditions noted are these: 168 h, time 7 day. Format: functional.

Series [17] in a line: Cytotoxicity against HUVEC cells assessed as reduction in cell viability incubated for 48 hrs by CCK8 assay. Format: toxicity, cell-based. The following applies: human.
Series [18] relates to Enterococcus faecalis. The series can be described thus: Antibacterial activity against Enterococcus faecalis (8 strains) assessed as inhibition of bacterial growth incubated for 18 to 24 hrs by broth microdilution method. The format is functional. The following applies: time 18-24 hrs.
Series [19] concerns Staphylococcus aureus. The series can be described thus: Bacteriostatic activity against Staphylococcus aureus ATCC 29213 assessed as log reduction in bacterial colony counts at 4 times of MIC measured after 24 hrs by time-kill assay. The format is functional.
The target of series [20] is DNA gyrase (Staphylococcus aureus) (UniProt P0A0K8+P20831). The series can be described thus: Inhibition of Staphylococcus aureus DNA gyrase supercoiling using […] pBR322 DNA as substrate assessed as reduction in supercoiled DNA incubated for 30 mins in presence of ATP by agarose gel electrophoresis. The following applies: dose 0.01-100 µM. Format: protein-complex assay.
DNA gyrase (Staphylococcus aureus), sequence (P0A0K8 2-644 limits assumed): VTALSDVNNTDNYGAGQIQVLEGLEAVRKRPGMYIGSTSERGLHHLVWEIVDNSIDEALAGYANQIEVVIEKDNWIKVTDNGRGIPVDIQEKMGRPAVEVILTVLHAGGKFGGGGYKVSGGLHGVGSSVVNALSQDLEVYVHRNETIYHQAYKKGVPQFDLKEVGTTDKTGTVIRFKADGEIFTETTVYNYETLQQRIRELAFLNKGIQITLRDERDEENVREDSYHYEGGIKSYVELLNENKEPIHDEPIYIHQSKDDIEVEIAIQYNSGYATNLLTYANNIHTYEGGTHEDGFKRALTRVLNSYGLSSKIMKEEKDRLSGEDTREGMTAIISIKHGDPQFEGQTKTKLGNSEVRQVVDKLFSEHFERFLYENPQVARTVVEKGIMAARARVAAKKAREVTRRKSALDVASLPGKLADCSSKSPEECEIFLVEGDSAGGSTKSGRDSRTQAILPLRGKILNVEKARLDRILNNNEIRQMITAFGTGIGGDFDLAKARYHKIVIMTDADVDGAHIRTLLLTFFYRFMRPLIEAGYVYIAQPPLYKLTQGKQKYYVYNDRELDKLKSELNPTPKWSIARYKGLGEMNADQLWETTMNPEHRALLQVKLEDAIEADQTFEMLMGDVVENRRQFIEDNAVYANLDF
DNA gyrase (Staphylococcus aureus), sequence (P20831 whole entry partner): as the sequence (P20831 whole entry) above

Series [21] has as its system Staphylococcus aureus. The series can be described thus: Bacteriostatic activity against Staphylococcus aureus ATCC 29213 assessed as inhibition of bacterial growth at 1 times of MIC measured after 24 hrs by time-kill assay. Format: functional, organism-based.
Series [22] deals with Staphylococcus aureus. The series can be described thus: Antibacterial activity against methicillin-sensitive Staphylococcus aureus (8 strains) assessed as inhibition of bacterial growth incubated for 18 to 24 hrs by broth microdilution method. Format: functional. The conditions noted are these: time 18-24 hrs.
Series [23] in a line: Metabolic stability in mouse liver microsomes assessed as half-life at 1 uM measured upto 60 mins in presence of NADPH by LC-MS/MS analysis. The format is ADME, Microsome.
For series [24], the system named is Staphylococcus epidermidis. The series can be described thus: Antibacterial activity against methicillin-resistant Staphylococcus epidermidis (11 strains) assessed as inhibition of bacterial growth incubated for 18 to 24 hrs by broth microdilution method. Format: functional. The following applies: time 18-24 hrs.
Series [25] has as its system Staphylococcus aureus. The series can be described thus: Bactericidal activity against Staphylococcus aureus ATCC 29213 assessed as log reduction in bacterial colony counts at 16 times of MIC measured after 24 hrs by time-kill assay. Format: functional.
Series [26] deals with Staphylococcus aureus. The series can be described thus: Antibacterial activity against vancomycin intermediate and methicillin-resistant Staphylococcus aureus (2 strains) assessed as inhibition of bacterial growth incubated for 18 to 24 hrs by broth microdilution method. Format: functional. The following applies: time 18-24 hrs.
Series [27] deals with Staphylococcus aureus. The series can be described thus: Bactericidal activity against Staphylococcus aureus ATCC 29213 at 16 times of MIC measured after 24 hrs by time-kill assay. The format is functional, organism-based.
Series [28] has as its target T1, DNA gyrase. The series can be described thus: Inhibition of Staphylococcus aureus DNA gyrase supercoiling using supercoiled pBR322 DNA as substrate incubated for 60 mins by ethidium bromide staining based analysis. The format is protein-complex assay.
In series [29] the target is T2, Topoisomerase IV (Staphylococcus aureus, UniProt P0C1S7+P0C1U9). The series can be described thus: Inhibition of Staphylococcus aureus DNA topoisomerase 4 decatenation activity incubated for 1 hrs by ethidium bromide staining based analysis. Format: protein-complex assay.
T2 sequence (P0C1U9 whole entry): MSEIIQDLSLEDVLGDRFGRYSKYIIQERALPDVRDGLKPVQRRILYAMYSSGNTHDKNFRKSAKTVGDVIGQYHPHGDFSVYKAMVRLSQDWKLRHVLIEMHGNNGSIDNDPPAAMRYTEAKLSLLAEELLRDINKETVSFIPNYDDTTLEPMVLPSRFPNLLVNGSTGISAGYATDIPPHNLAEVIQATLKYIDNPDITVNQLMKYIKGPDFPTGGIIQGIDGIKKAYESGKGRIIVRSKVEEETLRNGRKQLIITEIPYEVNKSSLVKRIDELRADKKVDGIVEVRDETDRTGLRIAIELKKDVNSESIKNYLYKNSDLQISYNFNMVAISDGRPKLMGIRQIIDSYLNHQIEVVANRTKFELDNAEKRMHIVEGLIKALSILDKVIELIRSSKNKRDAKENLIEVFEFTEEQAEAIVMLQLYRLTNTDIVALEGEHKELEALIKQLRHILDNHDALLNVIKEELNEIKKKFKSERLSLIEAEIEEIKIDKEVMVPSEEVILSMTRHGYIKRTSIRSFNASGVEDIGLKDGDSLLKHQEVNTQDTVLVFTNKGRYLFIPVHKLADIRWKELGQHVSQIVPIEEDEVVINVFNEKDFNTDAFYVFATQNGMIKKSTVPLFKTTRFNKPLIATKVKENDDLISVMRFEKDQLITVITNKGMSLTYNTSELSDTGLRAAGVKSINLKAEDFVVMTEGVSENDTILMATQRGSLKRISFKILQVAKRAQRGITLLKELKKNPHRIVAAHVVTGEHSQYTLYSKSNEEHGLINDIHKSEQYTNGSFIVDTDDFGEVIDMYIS
T2 sequence (P0C1S7 whole entry): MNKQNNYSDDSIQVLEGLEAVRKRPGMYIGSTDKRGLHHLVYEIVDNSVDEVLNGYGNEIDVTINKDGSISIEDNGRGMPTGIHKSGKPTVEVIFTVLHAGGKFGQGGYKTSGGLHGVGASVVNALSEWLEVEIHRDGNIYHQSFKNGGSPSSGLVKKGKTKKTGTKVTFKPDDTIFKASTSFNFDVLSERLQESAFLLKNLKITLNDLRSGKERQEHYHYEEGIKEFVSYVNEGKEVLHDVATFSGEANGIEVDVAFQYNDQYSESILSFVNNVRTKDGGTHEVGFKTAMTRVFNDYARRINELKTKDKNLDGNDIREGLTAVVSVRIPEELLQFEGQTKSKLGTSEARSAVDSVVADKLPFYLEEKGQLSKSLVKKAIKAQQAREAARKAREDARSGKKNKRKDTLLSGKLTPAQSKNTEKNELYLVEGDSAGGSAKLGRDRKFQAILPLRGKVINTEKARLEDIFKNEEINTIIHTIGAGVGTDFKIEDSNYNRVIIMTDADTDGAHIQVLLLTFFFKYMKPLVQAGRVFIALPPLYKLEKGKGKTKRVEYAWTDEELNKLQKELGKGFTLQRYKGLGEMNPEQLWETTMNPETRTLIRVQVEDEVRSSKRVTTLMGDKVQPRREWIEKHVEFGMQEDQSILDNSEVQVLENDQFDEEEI
The test system of series [30] is Staphylococcus aureus. The series can be described thus: Antibacterial activity against Staphylococcus aureus ATCC 25923 incubated for 24 hrs by CLSI protocol based broth microdilution method. Format: functional.
Series [31] relates to Staphylococcus aureus. The series can be described thus: Antibacterial activity against methicillin-resistant Staphylococcus aureus incubated for 24 hrs by CLSI protocol based broth microdilution method. Format: functional.
Series [32] deals with T1, DNA gyrase. The series can be described thus: Inhibition of Staphylococcus aureus DNA gyrase using supercoiled pBR322 as substrate preincubated for 1 hrs followed by proteinase K addition and measured after 30 mins by agarose gel electrophoresis. Format: protein-complex assay.
Series [33] concerns Staphylococcus aureus. The series can be described thus: Antibacterial activity against Staphylococcus aureus clinical isolates incubated for 18 hrs by Mueller-Hinton broth based assay. The format is functional.
The target in series [34] is T2, Topoisomerase IV. The series can be described thus: Inhibition of Staphylococcus aureus DNA topoisomerase 4 using linear pBR322 as substrate preincubated for 10 mins followed by ATP addition and measured after 1 hrs ATP hydrolysis assay. The format is protein-complex assay.
Series [35] concerns Staphylococcus aureus. The series can be described thus: Antibacterial activity against methicillin-resistant Staphylococcus aureus incubated for 18 hrs by CLSI protocol based broth microdilution method. Format: functional.
Series [36] addresses T3, Ribonuclease P protein component (Staphylococcus aureus, UniProt P0A0H5).
T3 sequence (P0A0H5 whole entry): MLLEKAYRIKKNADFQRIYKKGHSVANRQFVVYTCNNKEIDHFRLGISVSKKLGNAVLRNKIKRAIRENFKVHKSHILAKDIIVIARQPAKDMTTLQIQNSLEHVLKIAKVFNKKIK
The series can be described thus: Inhibition of Staphylococcus aureus RnpA-mediated RNA degradation incubated for 20 mins by fluorescence-based high through-put assay.

Converted amounts (≈) assume the structure as drawn. The source made the active and inactive calls.

The term MIC denotes the lowest concentration found to suppress growth. Regarding `CN[C@H](CC(C)C)C(=O)N[C@H]1C(=O)N[C@@H](CC(N)=O)C(=O)N[C@H]2C(=O)N[C@H]3C(=O)N[C@H](C(=O)N[C@H](C(=O)O)c4cc(O)cc(O)c4-c4cc3ccc4O)[C@H](O)c3ccc(c(Cl)c3)Oc3cc2cc(c3O[C@@H]2O[C@H](CO)[C@@H](O)[C@H](O)[C@H]2O[C@H]2C[C@](C)(N)[C@H](O)[C@H](C)O2)Oc2ccc(cc2Cl)[C@H]1O` [VANCOMYCIN], the survival at 3.5 mg/kg in [1] came out at 20%. The MIC is 1.56 µg/mL in [2] and 0.25 µg/mL (≈ 0.173 µM) in series [5]. For the same compound, in series [3], the survival at 5 mg/kg was 50%. For the same compound, the survival at 7 mg/kg in [4] was found to be 50%. Moreover, in series [6], the survival at 10 mg/kg came out at 60%.

As a reminder, the half-life is the time needed for the level to fall by half in the phase considered. What is called IC50 is the midpoint of a concentration-inhibition curve. In general, CC50 refers to the concentration giving 50% cytotoxicity. As to `CCCCCOc1ccc(C(=O)NNC(=S)NC(C)=O)cc1`, the result in [7], in [21] and in series [27] was Active. Besides, the MIC came out at 2.41 µM in series [2]; 1 µg/mL (≈ 3.09 µM) in series [8]; 2 µg/mL (≈ 6.18 µM) in series [9]; 4 µg/mL (≈ 12.4 µM) in series [18]; 1 µg/mL (≈ 3.09 µM) in [22]; 0.5 µg/mL (≈ 1.55 µM) in series [24]. The MIC in series [5] and in series [26] was 2 µg/mL (≈ 6.18 µM) each time. Also, the figures for the half-life at 1 µM in [10] and in [23] were above 120 min and 28.3 min, respectively. Also, in [4], the survival at 7 mg/kg came out at 10%. The IC50 in series [11] was 1.81 µM. In addition, the selectivity ratio in series [12] came out at 2.68; in series [14], 0.98. Also, in series [13], the survival at 14 mg/kg worked out at 20%. Moreover, the cytotoxic concentration (CC50) at 48 h in [15] is 2.37 µM; in series [17], 6.46 µM. Further, the survival at 20 mg/kg in [16] is 50%. Further, the “log(activity)” value came to 2.51 in series [19] and 6.41 in series [25]. Moreover, in [20], the inhibition entry is “Dose-dependent-effect”. Further, the survival at 10 mg/kg in series [6] amounted to 20%.

For the compound `O=C(NC(=S)NNC(=O)c1cccc(Cl)c1Cl)c1ccc([N+](=O)[O-])cc1`, the IC50 in [28] and in series [29] was above 100 µM throughout. Moreover, the results for the minimum inhibitory concentration (MIC) in series [30] and in series [31] were 1.95 µg/mL (≈ 4.72 µM) and above 62.5 µg/mL, respectively.

Regarding `O=C(NC(=S)NNC(=O)c1cc2ccccc2[nH]1)c1ccccc1`, the figures for the IC50 in [32] and in [34] were above 50 µM and above 10 µM, respectively. In addition, the minimal inhibitory concentration (MIC) in series [33] was 8 µg/mL (≈ 23.6 µM).

Turning to `Cc1ccc(C(=O)NC(=S)NNC(=O)c2ccc(Cl)cc2)cc1C`, the MIC in series [35] was 16 µg/mL (≈ 44.2 µM). In [36], this compound yielded a half-inhibitory concentration (IC50) above 50 µM.
